Measurements reported in PubChem BioAssay AID618 (Sanford-Burnham Center for Chemical Genomics, 2007).
Activity calls are given as the source filed them. The rule behind the calls is not given here.

Tested on: MT1-MMP promoter luciferase reporter cells, luminescence
Assay: MT1-MMP gene expression reporter suppression – cell-based, luciferase reporter, luminescence (AID 618);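 note: actives suppress MT1-MMP promoter-driven transcription so potencies describe inhibitors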

Row | Structure (SMILES) | EC50
1 | CCN(CC)c1ccc2cc(-c3nc4ccccc4[nH]3)c(=O)oc2c1 | 1.06 µM
2 | CCOc1ccc(OCc2ccc(C(=O)OCc3ccccn3)o2)cc1 | 3.05 µM
3 | Cc1cc(C(=O)COC(=O)c2n[nH]c3ccccc23)c(C)n1C | 7.21 µM
4 | Cc1ccsc1/C=C1\CCc2ccccc2C1=O | 3.09 µM
5 | CCOC(=O)CCS(=O)(=O)c1nc(-c2ccccc2)cc(C(F)(F)F)n1 | 15.7 µM
6 | CCOC(=O)/C(=C\c1ccccc1)C(=O)c1cc(C(C)=O)c(Nc2ccccc2)s1 | 14.4 µM
7 | CN1/C(=C\C=C\C2=[N+](C)c3ccc4ccccc4c3C2(C)C)C(C)(C)c2ccccc21 | 4.71 µM
8 | CC(C)(C)c1ccc(-c2nc(-c3ccncc3)no2)cc1 | 6.13 µM
9 | Cn1c(-c2ccccc2)cnc1SCC(=O)N1CCCCC1 | 2.88 µM
10 | Oc1ccc(Nc2nc(N3CCCC3)c3ccccc3n2)cc1 | 26.5 µM
11 | Cc1cc(C)c(OCC(=O)Nc2cccc(O)c2)cc1C | 26.6 µM
12 | Cc1ccc(C(=O)/C=C2\NCC(C)NC2=O)cc1 (stereo not given) | 3.53 µM
13 | O=S1(=O)Nc2c(ccc3cccnc23)-c2ccccc21 | 24.6 µM
14 | Cc1ccc(-c2nc(-c3ccccn3)no2)cc1 | < 0.098 µM
15 | CC1CCc2nc(NC(=O)C3CCCO3)sc2C1 (stereo not given) | 12.4 µM
16 | Cc1nc2ccc(-c3nc4cc(N)ccc4o3)cc2[nH]1 | 3.71 µM
17 | O=C(O)c1cccc(C(=O)Nc2cccc(NC(=O)C3CCCO3)c2)c1 (stereo not given) | 10.1 µM
18 | O=C(Nc1ccc(N2CCCCC2)cc1)c1ccccc1 | 3.57 µM
19 | O=C(CSc1nnc(-c2csc3c2CCCC3)o1)Nc1ccccc1 | 4.27 µM
20 | Brc1ccccc1-c1nc(-c2ccccc2)no1 | 6.92 µM
21 | COCCn1c(C)cc(C(=O)CSc2nnc3ccccn23)c1C | 3.63 µM
22 | c1ccc(-c2cnc(-c3ccccc3)nc2)cc1 | 3.74 µM
23 | CC(C)C(=O)Nc1ccc(-c2nc3cccnc3o2)cc1 | 6.05 µM
24 | CC(C)C(=O)NC(c1ccco1)c1ccc2cccnc2c1O (stereo not given) | 27.6 µM
25 | COC(=O)c1ccc(-c2nc3cc(N)ccc3o2)cc1 | 3.09 µM
26 | O=C(/C=C\Nc1ccccn1)c1ccc(Cl)cc1 | 1.18 µM

Row | Structure (SMILES) | EC50
27 | COc1ccc(-n2ncc3c(NCC(C)C)ncnc32)cc1 | 6.31 µM
28 | COc1ccc(C2=Nc3ccccc3OC2)cc1 | 38.1 µM
29 | CCCc1cc(C(=O)Nc2nccs2)cs1 | 12.7 µM
30 | COc1ccc(S(=O)(=O)N2CCN(C(=O)CCC3CCCC3)CC2)cc1 | > 50 µM (inactive)
31 | c1ccc(-c2ccc(-c3nc(-c4ccncc4)no3)cc2)cc1 | 9.02 µM
32 | COc1ccc(-c2cc3nc(C)cc(N)n3n2)cc1 | 1.73 µM
33 | CCOc1ccc(-c2nnc(-c3ccco3)o2)cc1 | 1.42 µM
34 | Cc1cc(C)n(-c2nc3ccccc3nc2N2CCC(C)CC2)n1 | > 50 µM (inactive)
35 | Cn1ccnc1SCc1cn2cc(Br)ccc2n1 | 15 µM
36 | c1ccc(-c2cn3nc4c(nc3n2)CCCC4)cc1 | 0.54 µM
37 | Nc1nc(Nc2ccc(Cl)cc2)nc2ccccc12 | 2.13 µM
38 | Cc1ccc(C(=O)Nc2cnc3ccccc3c2)cc1 | 0.2 µM
39 | Nc1ccc2oc(-c3ccc4nc[nH]c4c3)nc2c1 | 4.29 µM
40 | CC(C)(C)c1ccc(C(=O)N2CCCCCC2=O)cc1 | 12.8 µM
41 | CCCCCCOc1ccc(CN2CCN(CCO)CC2)cc1 | 12.1 µM
42 | CCc1ccc(-c2cc(C(=O)Nn3cnnc3)c3ccccc3n2)cc1 | 2.12 µM
43 | O=C(c1cccc(COc2ccc(Cl)cc2Cl)c1)N1CCN(c2ccccn2)CC1 | 12.6 µM
44 | COc1ccc(-c2cc3nnc(-c4ccccc4)nc3s2)cc1 | 0.86 µM
45 | COCCn1c(C)cc(C2=NNC(=Nc3ccccc3F)SC2)c1C | 3.04 µM
46 | CCCCN(C)C(=O)c1cc2cc3ccc(OC)cc3nc2s1 | 3.61 µM
47 | Cc1ccc(-c2nc3cc(NC(=O)C(C)C)ccc3o2)cc1 | 5.62 µM
48 | NC(=O)c1c(NC(=O)c2cc3ccccc3o2)sc2c1CCC2 | 6.54 µM
49 | CCN=C1NN=C(c2ccc(C)cc2)CS1 | 1.98 µM
50 | Cc1ccc2nc(NC(=O)c3ccco3)sc2c1 | 1 µM
51 | COc1cccc(-c2nc3cc(C)ccc3o2)c1 | 4.41 µM
52 | CCOc1ccc(OCc2ccc(C(=O)O)o2)cc1 | 5.8 µM

Row | Structure (SMILES) | EC50
53 | CCOc1ccc(-c2cc(CCCC(=O)NCCCOC)no2)cc1 | 8.32 µM
54 | Cc1ccc(-c2nc3cc(N)ccc3o2)c(C)c1 | 2.68 µM
55 | N#Cc1c(NC(=O)CSc2ncn[nH]2)sc2c1CCCCC2 | < 0.098 µM
56 | O=C(/C=C\Nc1ccc2c(c1)OCO2)c1ccccn1 | 0.23 µM
57 | COc1ccc(-n2ncc3c(NC(C)C)ncnc32)cc1 | 5.36 µM
58 | Cc1nc(Nc2nc3ccccc3o2)nc2c1CCC2 | 3.09 µM
59 | COc1ccccc1-c1nc(-c2ccccn2)no1 | 1.82 µM
60 | Cc1ccc(C(=O)CSc2nnnn2C(C)C)c(C)c1 | 1.7 µM
61 | Cc1ccc(-c2nc3n(n2)Cc2ccccc2-3)cc1 | 1.49 µM
62 | Cc1cnc(NC(=O)C2COc3ccccc3O2)s1 (stereo not given) | 0.61 µM
63 | Cc1cccc(C(=O)N2CCN(C(=O)c3cccc(C)c3)C(C)C2)c1 (stereo not given) | > 50 µM (inactive)
64 | COc1ccc(-c2cc(C(=O)O)c(C)o2)cc1OC | 3.55 µM
65 | Cc1ccc2nc(-c3cccc(N)c3)[nH]c2c1 | 2.8 µM
66 | O=C(CSc1nnc(-c2ccccc2)o1)Nc1ccccc1F | 0.82 µM
67 | Cc1c(NC(=O)c2coc(=O)c(Br)c2)c(=O)n(-c2ccccc2)n1C | 13.1 µM
68 | CCCCCN=Cc1c(C)[nH]n(-c2nc3ccccc3s2)c1=O | 6.14 µM
69 | O=C(/C=C/Nc1cccc(O)c1)c1ccccc1 | 1.32 µM
70 | Cc1cc(C(=O)CN2C(=O)c3ccccc3S2(=O)=O)c(C)n1CC1CCCO1 (stereo not given) | 0.11 µM
71 | Nc1ccc(-c2nc3ccc(N)cc3o2)cc1 | 14 µM
72 | Oc1cccc(-c2nc3ccccc3s2)c1 | 2.99 µM
73 | Cc1cc(-c2csc(N)n2)c(C)n1CCC(C)C | 39.9 µM
74 | CC1=NC(=O)C(N=Nc2cccc(C(=O)O)c2)N1c1ccccc1 (stereo not given) | 1.64 µM
75 | COc1ccc(-c2nsc3c(N4CCCCC4)ncnc23)cc1 | 0.27 µM
76 | O=C1c2ccccc2C(=O)C1c1nccc2ccccc12 | 1.83 µM
77 | c1ccc(-c2ccc(-c3ccccn3)nn2)nc1 | 4.2 µM
78 | O=C(/C=C\Nc1ccccn1)c1ccccc1 | 2.01 µM

Row | Structure (SMILES) | EC50
79 | CC(C)Nc1ncnc2c1cnn2-c1ccc(Cl)cc1 | 3.85 µM
80 | CCOC(=O)CNC(=O)CSc1ncnc2c1cnn2-c1ccc(C)cc1 | 28 µM
81 | CCN1C=CC(=C2C(=O)c3ccccc3C2=O)C=C1 | 0.2 µM
82 | O=c1c(Cl)c(N2CCCCC2)cnn1-c1nc2ccccc2[nH]1 | 0.59 µM
83 | C=CCNc1nc(-c2ccccn2)nnc1-c1ccccc1 | 15.2 µM
84 | COc1ccc(-c2noc(CCCC(=O)O)n2)cc1 | 0.77 µM
85 | Cc1cc(C(=O)Nc2cccc(C(=O)O)c2)oc1C | 0.82 µM
86 | Clc1cccc(-c2nnc(-c3ccccc3)o2)c1 | 7.03 µM
87 | COc1cccc(C(=O)NCCC2=CCCCC2)c1 | 8.74 µM
88 | O=c1/c(=C/c2ccccn2)sc2nc3ccccc3n12 | 10 µM
89 | Cc1cc(C)c(C)c(S(=O)(=O)Nc2ccccc2C(=O)NCCCn2ccnc2)c1C | 1.82 µM
90 | CNc1nnc(-c2ccc(N(C)C)cc2)s1 | 5.1 µM
91 | CN(C(=O)c1ccco1)c1nc2c(s1)CCCC2 | 7.12 µM
92 | N#Cc1cc2c(nc1SCC(=O)Nc1nccs1)CCCCC2 | 7.77 µM
93 | O=C(CN1C(=O)c2ccccc2S1(=O)=O)c1ccccc1 | > 50 µM (inactive)
94 | O=C(O)CCSc1nnc(-c2ccc3c(c2)OCO3)o1 | 29.7 µM
95 | CC(=O)Nc1ccc2oc(-c3cc(F)c(F)cc3Cl)nc2c1 | 3.48 µM
96 | Nc1ccc(-c2nc3c(Cl)cc(N)cc3[nH]2)cc1 | 10.7 µM
97 | CCC/C(O)=C1\C(=O)CC(C)(C)CC1=Nc1ccc(OC)cc1OC | 23.6 µM
98 | Cc1ccccc1C(=O)N/N=C/c1ccc([N+](=O)[O-])s1 | 25.5 µM
99 | CC1CCN(c2nc3ccc(C(=O)O)cc3s2)CC1 | 0.35 µM
100 | CN(C)c1ccc(N/C=C/C(=O)c2ccco2)cc1 | 4.42 µM
101 | CC1=CC(C)(C)Nc2ccc(OC(=O)CN3C(=O)CCC3=O)cc21 | 42 µM
102 | Nc1cccc2nc3ccccc3cc12 | 21.9 µM
103 | COc1ccc(C(=O)Nn2c(SCC(=O)NCc3ccccc3)nc3ccccc3c2=O)cc1 | 1.29 µM
104 | COc1ccc(C(=O)Nn2c(SCC(=O)NCc3ccco3)nc3ccccc3c2=O)cc1 | 1.14 µM

Row | Structure (SMILES) | EC50
105 | c1ccc(-c2noc(-c3cccs3)n2)nc1 | > 50 µM (inactive)
106 | Cc1ccc(OCc2nc(-c3ccccn3)no2)c(Br)c1 | 2.17 µM
107 | N#C/C(=C\c1ccc(N2CCOCC2)o1)c1nc2ccccc2[nH]1 | 4.32 µM
108 | Cc1cc(NCCCn2ccnc2)n2ncc(-c3ccc(Cl)cc3)c2n1 | 8.72 µM
109 | Clc1ccc(-c2nnc(N3CCCC3)nn2)cc1 | 6.38 µM
110 | Cc1ccc(SCc2cn3c(C)csc3n2)cc1 | 5.82 µM
111 | COc1ccc(NC(=O)/C(Cl)=C(/Cl)S(=O)(=O)Cc2ccc(C)cc2)cn1 | 14.5 µM
112 | C=CCn1c(C)cc(C(=O)CSc2ccc(NC(C)=O)cc2)c1C | 2.37 µM
113 | O=C(Nc1ccc2c(c1)OCCO2)c1cncc(Br)c1 | 7.14 µM
114 | Cc1oc(-c2ccc3c(c2)OCCO3)cc1C(=O)O | 2.94 µM
115 | Fc1ccc(-c2nnc(-c3ccc(Cl)cc3Cl)o2)cc1 | 8.19 µM
116 | Cc1c(C(=O)NC2=NCCS2)oc2ccccc12 | 9.29 µM
117 | CCn1c(SCC(=O)Nc2ccccc2C)nnc1-c1ccccc1O | > 50 µM (inactive)
118 | COC(=O)Cc1ccc(NC(=O)c2ccc(C(C)(C)C)cc2)cc1 | 0.31 µM
119 | Cc1cc(/C=N/n2cnnc2)c(C)n1-c1ccc(OCc2ccc(Cl)cc2Cl)cc1 | 9.47 µM
120 | O=C(Nc1nc2ccccc2[nH]1)c1ccccc1 | 3.53 µM
121 | CCOc1ccc(-c2cc(CCCC(=O)Nc3cc(OC)ccc3OC)no2)cc1 | 3.5 µM
122 | C=CCNc1ncnc2c1cnn2-c1ccc(OC)cc1 | 8.5 µM
123 | CC(C)(C)c1ccc(C(=O)Nc2ccc(CC(=O)O)cc2)o1 | 0.23 µM
124 | O=C(c1cc(-c2cccc(O)c2)on1)N1CCCCC1 | 6.35 µM
125 | CC(C)c1ccc(-c2nnn(CCC(=O)O)n2)cc1 | 1.04 µM
126 | O=c1c2ccccc2nnn1CSc1nnc2sc3ccccc3n12 | 8.02 µM
127 | c1ccc(-c2nc(-c3ccccn3)no2)cc1 | 8.19 µM
128 | Oc1c(CN2CCCCC2)cc(COCc2ccccc2)c2cccnc12 | 6.94 µM
129 | COc1ccc(NC(=O)c2cc3ccccn3n2)cc1 | 4.38 µM
130 | CCc1ccc2oc(-c3cccc(N)c3)nc2c1 | 3.93 µM
